Source: article PMC4296562 (Analytical biochemistry, 2014)

How the values were obtained:
MurX [1] = biological target: T1, MurX (Mycobacterium tuberculosis, UniProt P9WMW7); format: biochemical; details: for MurX inhibition (%) 0.1 μM: inhibitor 0.1 μM; for MurX inhibition (%) 0.1 μM / MurX inhibition (%) 1 μM / MurX inhibition (%) 10 μM / MurX inhibition (%) 100 μM: 2 75 μM, neryl phosphate 6, P-60, 26 °C, 3h; for MurX inhibition (%) 1 μM: inhibitor 1 μM; for MurX inhibition (%) 10 μM: inhibitor 10 μM; for MurX inhibition (%) 100 μM: inhibitor 100 μM; for IC50: neryl phosphate assay, obtained three times, ± standard error of the mean
MraY-MurG = details: no reference given; cited from earlier work
MurX [2] = biological target: T1, MurX
Water-solubility = format: physicochemical

T1 sequence (P9WMW7 whole entry): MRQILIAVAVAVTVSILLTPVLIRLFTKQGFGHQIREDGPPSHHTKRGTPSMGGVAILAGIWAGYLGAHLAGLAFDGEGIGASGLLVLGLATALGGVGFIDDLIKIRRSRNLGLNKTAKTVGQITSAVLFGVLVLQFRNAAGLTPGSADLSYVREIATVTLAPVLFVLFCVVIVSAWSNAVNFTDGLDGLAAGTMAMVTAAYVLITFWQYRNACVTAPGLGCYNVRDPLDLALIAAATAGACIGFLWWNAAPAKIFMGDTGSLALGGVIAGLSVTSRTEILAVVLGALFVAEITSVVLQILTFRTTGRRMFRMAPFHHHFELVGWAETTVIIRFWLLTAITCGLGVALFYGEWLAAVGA

Compound | MurX inhibition (%) 0.1 μM (MurX [1]) | MurX inhibition (%) 1 μM (MurX [1]) | MurX inhibition (%) 10 μM (MurX [1]) | MurX inhibition (%) 100 μM (MurX [1]) | other results
CO[C@H]1[C@@H](O)[C@H](n2ccc(=O)[nH]c2=O)O[C@@H]1[C@@H](O[C@H]1OC(C(=O)N[C@H]2CCCCNC2=O)=C[C@H](O)[C@@H]1O)C(N)=O [Capuramycin (7), Capuramycin] | 36.6% | 88.4% | 100% | 100% | –
CN[C@H](CC(C)C)C(=O)N[C@H]1C(=O)N[C@@H](CC(N)=O)C(=O)N[C@H]2C(=O)N[C@H]3C(=O)N[C@H](C(=O)N[C@H](C(=O)O)c4cc(O)cc(O)c4-c4cc3ccc4O)[C@H](O)c3ccc(c(Cl)c3)Oc3cc2cc(c3O[C@@H]2O[C@H](CO)[C@@H](O)[C@H](O)[C@H]2O[C@H]2C[C@](C)(N)[C@H](O)[C@H](C)O2)Oc2ccc(cc2Cl)[C@H]1O [Vancomycin] | 0% | 0% | 0% | 0% | MurX inhibitory activity (MurX [1]; even at 100 μM concentrations): did not inhibit MurX; activity in MraY-MurG coupled assays (MraY-MurG): good activity
CC(C)=CCC/C(C)=C\COP(=O)(O)O [compound 6, neryl phosphate] | – | – | – | – | IC50 (MurX [1]): 0.152 µM
N-glycolyl Park’s nucleotide-N^ε-dansylthiourea [compound 1] | – | – | – | – | Km (MurX [2]): 18.1 µM
Park’s nucleotide-N^ε-dansylthiourea [compound 2] | – | – | – | – | Km (MurX [2]): 17.9 µM; Vmax for neryl-lipid I synthesis by MurX (MurX [2]): 0.00269 µM/s
Tunicamycin [Tunicamycin (9)] | 9% | 42% | 72% | 72% | IC50 (MurX [1]): 2.73 ± 0.138 µM
neryl-lipid I-N^ε-dansylthiourea [compound 5] | – | – | – | – | water-solubility (Water-solubility): > 50 µg/mL
